Measurements from US9108920B2, “Diazeniumdiolate heterocyclic derivatives” (Merck Sharp & Dohme Corp., priority 2010, dated 2015).

System: Male beagle dogs
Experiment: canine telemetry protocol, blood pressure reduction efficacy
Type: in vivo
Conditions: change from baseline, 3 mg/kg oral gavage; for ΔPP (mm Hg) 1-6 h / ΔPP (mm Hg) 6-12 h / ΔPP (mm Hg) 12-18 h: pulse pressure; for ΔSBP (mm Hg) 1-6 h / ΔSBP (mm Hg) 6-12 h / ΔSBP (mm Hg) 12-18 h: systolic blood pressure
Protocol: Compounds of the invention were evaluated for blood pressure reduction efficacy using the following canine telemetry protocol described below.
Male beagle dogs (approximately 1-3 years old) with a body weight of between 10 and 16 kg were surgically implanted with DSI radiotelemetry devices (model: TL11M2-D70-PCT). Briefly, under an inhalant anesthesia, isoflurane/oxygen mixture (1-3.5%/to effect), the body of the telemetry device was positioned and secured intra-abdominally. Subsequently, the arterial catheter of the telemetry device was passed subcutaneously to the inguinal area and introduced into the femoral artery and advanced to the level of the descending aorta. The catheter was secured with 2-0 silk ligatures. The muscle and underlying fascia was closed over the catheter using absorbable suture and the skin was closed using non-absorbable suture. The animals were allowed a minimum recovery period of 2 weeks between surgery and the evaluation of test compounds.
Compound evaluation consisted of a 3 day paradigm at a 3 mg/kg dose. On the first day, no compounds were administered during a 24 hour period of baseline data collection. Blood pressure and heart rate data were collected continuously for one minute periods at 10 minute intervals. On the days of compound administration half the animals received test article with the other half receiving the vehicle used for compound formulation. All test materials were administered by oral gavage in a volume of 1 mL/kg. Data are expressed either as raw values (mm Hg or beats per minute) or as the change from baseline (average value for about 12 hours in low activity period prior to dosing).

| Compound | ΔPP (mm Hg) 1-6 h [mm Hg] | ΔPP (mm Hg) 6-12 h [mm Hg] | ΔPP (mm Hg) 12-18 h [mm Hg] | ΔSBP (mm Hg) 1-6 h [mm Hg] | ΔSBP (mm Hg) 6-12 h [mm Hg] | ΔSBP (mm Hg) 12-18 h [mm Hg] |
| --- | --- | --- | --- | --- | --- | --- |
| O^2-[(3R)-1-(3-methoxyphenyl)-2-oxopyrrolidin-3-yl]1-(N-tert-butyl-N-methylamino)diazen-1-ium-1,2-diolate [Example 64] | −12 | −15 | −13 | −13 | −12 | −11 |
| CN(/[N+]([O-])=N/O[C@@H]1CCN(Cc2ccccc2)C1)C(C)(C)C [Example 28, O^2-[(3R)-1-benzylpyrrolidin-3-yl]1-(N-tert-butyl-N-methylamino)diazen-1-ium-1,2-diolate] | −12 | −10 | −5 | −21 | −14 | −7 |
| CCN(/[N+]([O-])=N/O[C@@H]1CCN(C(=O)NC(C)(C)C)C1)C(C)(C)C [Example 59, O^2-[(3R)-1-(tert-butylcarbamoyl)pyrrolidin-3-yl]1-(N-tert-butyl-N-ethylamino)diazen-1-ium-1,2-diolate] | −17 | −16 | −15 | −19 | −18 | −17 |
| CCN(/[N+]([O-])=N/O[C@@H]1CCN(CC(F)(F)F)C1)C(C)(C)C [Example 32, O^2-[(3R)-1-(2,2,2-trifluoroethyl)pyrrolidin-3-yl]-1-(N-tert-butyl-N-ethylamino)diazen-1-ium-1,2-diolate] | −23 | −15 | −10 | −32 | −16 | −5 |
| CCN(/[N+]([O-])=N/OC1CCN(C(=O)OC(C)(C)C)CC1)C(C)(C)C [Example 6, O^2-[1-(tert-butoxycarbonyl)piperidin-4-yl]1-(N-tert-butyl-N-ethylamino)diazen-1-ium-1,2-diolate] | −19 | −17 | −15 | −25 | −16 | −9 |
| CN(/[N+]([O-])=N/O[C@@H]1CCN(C(=O)OC(C)(C)C)C1)C(C)(C)C [Example 1, O^2-[(3R)-1-(tert-butoxycarbonyl)pyrrolidin-3-yl]1-(N-tert-butyl-N-methylamino)diazen-1-ium-1,2-diolate] | −16 | −17 | −15 | −16 | −15 | −11 |
| CCN(/[N+]([O-])=N/OC1CCN(c2ccc(C#N)cn2)CC1)C(C)(C)C [Example 48, O^2-[1-(5-cyanopyridin-2-yl)piperidin-4-yl]1-(N-tert-butyl-N-ethylamino)diazen-1-ium-1,2-diolate] | −17 | −16 | −15 | −16 | −12 | −11 |
